The conditions of data set [1]: cited from earlier work.
Data set [2] is described as follows: physchem.
Data set [3] can be described thus: physchem. The conditions noted are these: 0.01N HCl, simulated gastric fluid.
Data set [4] is described as follows: Selection of surfactants: API solubility with different surfactants. To be noted: solubility not done, observation.

Results on two compounds are retold here after patent publication US20260207592A1, “PHARMACEUTICAL SUSPENSION OF NILOTINIB” (RENATA PHARMACEUTICALS (IRELAND) LIMITED, priority 2022, published 2026).

In brackets after ≈: the same amount, converted by molar mass. Counter-ions that a name gives are not always drawn.

Regarding `Cc1cn(-c2cc(NC(=O)c3ccc(C)c(Nc4nccc(-c5cccnc5)n4)c3)cc(C(F)(F)F)c2)cn1` [Nilotinib, 4-Methyl-3-[[4-(3-pyridinyl)-2-pyrimidinyl]amino]-N-[5-(4-methyl-1H-imidazol-1-yl)-3-(trifluoromethyl)phenyl] benzamide], the “solubility in alcohol (descriptive)” value in data set [1] (alcohol) was “slightly soluble”. Also, in data set [1] (water), the solubility in water was 0.2 µg/mL (≈ 0.378 µM) and the “solubility in water (descriptive)” value was “very slightly soluble”.
Turning to `Cc1cn(-c2cc(NC(=O)c3ccc(C)c(Nc4nccc(-c5cccnc5)n4)c3)cc(C(F)(F)F)c2)cn1` [API, Nilotinib Hydrochloride Monohydrate], the solubility (usually the concentration that dissolves in the medium under given conditions) in the data set “physchem [2]” is 0.2 µg/mL; in “physchem [2]” (poloxamer 188 solution, 100 mg/ml, aqueous with cosolvent or surfactant or cyclodextrin) it was 321 µg/mL; in the data set “physchem [2]” (poloxamer 407 solution, 10 mg/ml, aqueous with cosolvent or surfactant or cyclodextrin), 227 µg/mL; in “physchem [2]” (polysorbate 20 solution, 5 mg/ml, aqueous with cosolvent or surfactant or cyclodextrin) it was 478 µg/mL; in “physchem [3]”, 494 µg/mL; in data set [4] (SLS, 5 mg/ml), “Not done (Large lump formed”. In addition, the solubility result in data set [4] (Span 80, 150 ml/ml) is on record as “Not done (phase separation observed”.
